Test results published in patent US20040242679A1, “Methods and compositions for potentiating cancer chemotherapeutic agents” (priority 2002, published 2004).

Assays:
[1] = tested on: normal human liver (WRL 68); experiment: Cell death detection ELISA (histone-DNA complexes), normal liver cells; assay type: cell-based; conditions: 0.01-0.0001% furanone, three sequential treatments
Method: (§1) Four human tumor cell types, shown previously to be sensitive to combinations of mineral ascorbate plus metabolites are evaluated. These lines consist of: (i) a liver hepatoma (SK-Hep-1), (ii) a malignant melanoma (Malme-3M), (iii) a neurobastoma (SK-N-MC) and (iv) a colon carcinoma (T84). Non-malignant cell types consist of: normal human liver (WRL 68), normal skin fibroblasts (Malme-3) and normal retinal epithelial cells (ARPE-19). The tumor-derived lines, normal liver and skin fibroblasts are obtained from the American Type Culture Collection (ATCC). The ARPE-19 cell line is a gift from a colleague at California Institute for Medical Research. Cells are grown and maintained in culture, in a humidified incubator of 5% CO2/95% air. […]
(§2) Subconfluent monolayers of 1-2 old, adherent cultures (seeded at a density of 10,000 cells per well in a 96-well plate) are exposed to 0.1 volume of serial dilutions (10× concentrated solutions) of the furanone and the plate is returned to the incubator. […] The supernatant (cytoplasmic lysate) is saved and in aliquot (20 microliters) was assayed for the presence of histone-DNA complexes (nucleosomal fragments) by photometric detection (absorbance at 405-410 nm) using cell death detection Elisa assay (Roche Diagnostics).

[2] = tested on: liver hepatoma (SK-Hep-1); experiment: Cell death detection ELISA, hepatoma cells; assay type: cell-based, human
Method: as §1, §2

[3] = tested on: malignant melanoma (Malme-3M); experiment: Cell death detection ELISA, melanoma cells; assay type: cell-based, human
Method: as §1, §2

[4] = tested on: normal skin fibroblasts (Malme-3); experiment: Cell death detection ELISA, normal skin fibroblasts; assay type: cell-based, human; conditions: two furanone preparations
Method: as §1, §2

colon carcinoma (T84) = experiment: Cell death detection ELISA, colon carcinoma cells; assay type: cell-based, human; conditions: up to a max. of 0.01% furanone
Method: as §1, §2

[5] = tested on: normal retinal epithelial cells (ARPE-19); experiment: Cell death detection ELISA, normal retinal epithelial cells; assay type: cell-based, human; conditions: up to max of 0.003% furanone
Method: as §1, §2

neurobastoma (SK-N-MC) = experiment: Cell death detection ELISA, neuroblastoma cells; assay type: cell-based, human; conditions: up to max of 0.001% furanone
Method: as §1, §2

[6] = tested on: SK-Hep-1, a liver adenocarcinoma (hepatoma); experiment: Cell Proliferation ELISA, BudR (colorimetric), hepatoma cells; assay type: cell-based, human; conditions: for inhibition of hepatoma proliferation, single agent: ADR 0.02-0.33 micromoles, furanone 0.001-0.01% compared at same absolute concentration; for suppression of hepatoma proliferation, adjuvant combined with ADR: adjuvant 0.5 mM AA equivalents, one application of ADR, two of adjuvant, prominent at ADR 0.003-0.03 micromolar
Description: (§3) Calcium ascorbate (CA), calcium threonate (CT), 4-hydroxy-5-methyl-3(2H)-furanone (FR) and Ester-C (EC) are obtained from Inter-Cal Corporation, Prescott, Ariz., USA. Tissue culture grade Ascorbic acid (AA) is from Sigma Chemical Company, St. Louis, Mo., USA. The composition of calcium ascorbate (calcium di-(L-ascorbate) dihydrate) is made by sequentially dissolving the salt in sterile water to obtain master-stock solutions of equal strength (1% w/v). Aqueous solution of calcium ascorbate plus calcium threonate plus 4-hydroxy-5-methyl-3(2H)-furanone (CA/CT/FR) is prepared at ratio of 85/7.5/7.5. For comparative analysis, stock solutions containing identical ascorbic acid (AA) equivalents are used. All master stocks are stored at room temperature during the course of these procedures. From these, 10× strength working stocks are prepared by serial dilution on the day of use and are applied to cells in microtiter plates as described below.
Adriamycin (doxorubicin) is obtained from Sigma Chemical Company (St. Louis, Mo.). Stock solutions are made by dissolving adriamycin (ADR) in sterile water and DTIC in water or dilute acetic acid solution (0.01N). Stocks are stored frozen at −10 C. and thawed prior to use. Serial dilutions are made in sterile water to obtain 10× strength solutions and one tenth volume of this is applied to cells at the time of treatment.
Target human tumor-derived lines consist of SK-Hep-1, a liver adenocarcinoma ([…]) and Malme-3M, a malignant melanoma. All seed cultures are obtained from ATCC, Manassas, Va., USA and are propagated/maintained in serum-containing growth medium in a humidified incubator of 5% CO2/95% air. SK-Hep-1 cells are grown in Eagle's minimum essential medium (EMEM) in Earle's salts plus non-essential amino acids supplemented with 10% FBS plus antibiotics and Malme-3M cells are cultured in McCoy's medium supplemented with 15% fetal bovine serum (FBS) plus antibiotics.
For treatment, exponentially growing cells are seeded at a density of 1×10^4 cells per well of 96-well microtiter plate in 0.1-0.2 ml of growth medium. After overnight cell attachment at 37 C., duplicate wells are exposed to various treatments by direct application of one-tenth volume of 10× strength solution. For treatments involving chemotherapeutic agent, one-tenth volume of serial dilutions of adriamycin (0.0006-3.0 micromolar) are applied to wells followed by application of ascorbate-containing composition (adjuvant) or sterile water (control). The adjuvant treatment is repeated every other day or on the third day (as applicable) without change of growth medium. Untreated controls receive an equivalent amount of sterile water. After 2-3 treatments with adjuvant, cells are labeled with BudR as described below. (In some experiments, wells are refed an equal volume of growth medium prior to additional of BudR. This gives a higher amount of BrdU incorporation into DNA relative to no refluiding).
For DNA labeling, the following procedure is adapted and modified from the Cell Proliferation ELISA, BudR (Colorimetric) assay of Roche Diagnostics, Indianapolis, Ind., USA: Each treated well is exposed to one-tenth volume of 10× BrdU-containing medium and reincubated at 37 C. overnight (15-20 hrs.). One set of control wells is exposed to medium only (no BudR) to obtain an absorbance-control (substrate only) blank for the assay. After the labeling period, the culture medium is removed and the cells are fixed and DNA denatured in one step by adding FixDenat (30 min at RT). Then, FixDenat is removed, the anti-BrdU-peroxidase reagent is added and incubation continues for 90 min at RT. After removal of the latter, the plate is washed 3 times, followed by addition of substrate solution. The plate is kept at RT until color development became sufficient for photometric detection ([…]). At this time, reaction is stopped by addition to each well of 25 microliter 1M sulfuric acid followed by mixing for approximately 1 min on the shaker. […]

[7] = tested on: Malme-3M, a malignant melanoma; experiment: Cell Proliferation ELISA, BudR (colorimetric), melanoma cells; assay type: cell-based, human; conditions: furanone at 0.1% as printed; FIG. 21
Description: as §3, with “below. […]” for “below.”
For DNA labeling, the following procedure is adapted and modified from the Cell Proliferation ELISA, BudR (Colorimetric) assay of Roche Diagnostics, Indianapolis, Ind., USA: Each treated well is exposed to one-tenth volume of 10× BrdU-containing medium and reincubated at 37 C. overnight (15-20 hrs.). One set of control wells is exposed to medium only (no BudR) to obtain an absorbance-control (substrate only) blank for the assay. […]

Compound: CC1=C(O)C(=O)CO1 [furanone, 4-hydroxy-5-methyl-3(2H)-furanone]
- maximal change in cell-death rate [1]: less than 0.3 logs
- cell death in hepatoma cells ([2]; furanone 0.001-0.01% (0.08-0.88 mM), three sequential treatments): sharp rises in cell death
- minimal concentration required to produce 2-fold change in apoptosis rate ([2]; hepatoma cells): < 0.001%
- minimal concentration required to produce 2-fold change in apoptosis rate [3]: 0.003%
- increase in apoptosis [4]: < 0.3 log
- change in rate of cellular apoptosis over untreated control (colon carcinoma (T84)): < 0.5 log
- change in death rates [5]: does not elicit significant changes in death rates
- change in death rates (neurobastoma (SK-N-MC)): does not elicit significant changes in death rates
- reduction in cellular DNA synthesis compared to untreated control ([6]; 0.01% furanone alone): ~4.6 fold
- enhancement of the inhibitory effect of ADR ([6]; ADR 0.007 micromolar, adjuvant 0.01%): 7 fold
- inhibition of hepatoma proliferation, single agent [6]: more effective in inhibiting hepatoma proliferation than either the triple ascorbate/metabolite mix or Ester-C®
- minimal dose of furanone required to produce 2-fold enhancement of ADR inhibition ([6]; two independent experiments): ~0.0016%
- enhancement of the inhibitory effect of ADR in melanoma cells [7]: consistently enhances the inhibitory effect of ADR at all concentrations of the chemotherapeutic drug

Compound: COc1cccc2c1C(=O)c1c(O)c3c(c(O)c1C2=O)C[C@@](O)(C(=O)CO)C[C@@H]3O[C@H]1C[C@H](N)[C@H](O)[C@H](C)O1 [ADR, Adriamycin (doxorubicin), reference compound]
- inhibition of hepatoma proliferation, single agent [6]: dose-dependent inhibition of hepatoma proliferation

Compound: O=C1O[C@H]([C@@H](O)CO)C(O)=C1O [AA, Ascorbic acid, reference compound]
- suppression of hepatoma proliferation, adjuvant combined with ADR [6]: greater suppression of hepatoma proliferation than ADR alone

Compound: calcium di-(L-ascorbate) dihydrate
- improvement of anti-proliferation activity of ADR ([6]; 0.033% adjuvant, low doses of ADR): consistently improve the anti-proliferation activity of low doses of ADR
- suppression of hepatoma proliferation, adjuvant combined with ADR ([6]; dihydrate): greater suppression of hepatoma proliferation than ADR alone
- suppression of hepatoma proliferation, adjuvant combined with ADR ([6]; listed as Calcium ascorbate, dihydrate): more effective than ascorbic acid
